# What was measured:
# [1] = tested on: PDX TNBC Model ST575; test: Antitumor effects in PDX mouse model of TNBC; assay type: in vivo; conditions: A 10 mg/kg SC BID 3 days on/4 off ×4, B 7.5 mg/kg PO BID×28, versus vehicle
# In short: (§1)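 Read-out: relative tumor volume (T/T0) from twice-weekly caliper measurements, expressed as % ΔT/ΔC or % Regression. Mice carried subcutaneous PDX fragments, treated from 150-250 mm^3 with CHK1 inhibitor (10 mg/kg SC BID, 3 on/4 off ×4) and/or PI3K/mTOR inhibitor (7.5 mg/kg PO BID×28).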
# [2] = tested on: PDX TNBC Model CTG-1340; test: Antitumor effects in PDX mouse model of TNBC; assay type: in vivo; conditions: PDX model CTG-1340; A 10 mg/kg SC BID 3 days on/4 off ×4; B 7.5 mg/kg PO BID×28; versus vehicle
# In short: as §1
Compound,% Rsp. (% ΔT/ΔC or % Regression) [1],% Rsp. (% ΔT/ΔC or % Regression) [2]
"COc1cccc(OCCCN)c1-c1cc(Nc2cnc(C#N)cn2)n[nH]1.CS(=O)(=O)O [Compound A, 5-(5-(2-(3-aminopropoxy)-6-methoxyphenyl)-1H-pyrazol-3-ylamino)pyrazine-2-carbonitrile methanesulfonate hydrate]",−87.5%,41.0%
"CO[C@@H](C)Cn1c(=O)n(C)c2cnc3ccc(-c4cncc(C(C)(C)O)c4)cc3c21 [Compound B, 8-[5-(1-hydroxy-1-methylethyl)pyridin-3-yl]-1-[(2S)-2-methoxypropyl]-3-methyl-1,3-dihydro-2H-imidazo[4,5-c]quinolin-2-one]",51.3%,17.1%

# — US20180228795A1, “COMBINATION THERAPY FOR CANCER” (Eli Lilly and Company, priority 2015, published 2018)
